Experimental data as given in ChEMBL document CHEMBL3885861, “Open TG-GATES”.

Species on record: Rattus norvegicus
Assay: Open TG-GATES - Regimen: Single
Type: toxicity, organism-based, Sprague-Dawley
Set-up: regimen Single, gender Male, age 6 weeks
Details: in vivo, po, 0 mg/kg, route gavage, dose level Control; for APTT / Bas / Eos / Fbg / Hb / Ht / Lym / MCH / MCHC / MCV / Mono / Neu / PT / Plat / RBC / Ret / WBC: tissue Blood; for KIDNEY_L / KIDNEY_R / KIDNEY_TOTAL: tissue Kidney; for LIVER: tissue Liver; for A/G / ALP / ALT / AST / BUN / CRE / Ca / Cl / DBIL / GLC / IP / K / LDH / Na / PL / RALB / TBIL / TC / TG / TP / gamma-GTP: tissue Plasma

Molecule `CCc1oc2ccccc2c1C(=O)c1cc(I)c(O)c(I)c1` [BENZIODARONE] has a TERMINAL_BW (3 h) of 211.5 g, an APTT (3 h) of 16.8 s and a Bas (3 h) of 0%. For the same molecule, the Eos (3 h) was 0.4%, the Fbg (3 h) was 205.2 mg/dL and the Hb (3 h) was 13.7 g/dL. For the same molecule, the Ht (3 h) was 40.7%, the Lym (3 h) was 81.8% and the MCH (3 h) was 22 pg. It also gave an MCHC (3 h) of 33.6%, an MCV (3 h) of 65.5 fL and a Mono (3 h) of 8%. The Neu (3 h) was 9.6%, the PT (3 h) was 11.9 s and the Plat (3 h) was 114.1 x10_4/uL. It also gave an RBC (3 h) of 621 x10_4/ul, a Ret (3 h) of 9.1% and a WBC (3 h) of 100.3 x10_2/uL. For the same molecule, the KIDNEY_L (3 h) was 1 g, the KIDNEY_R (3 h) was 1 g and the KIDNEY_TOTAL (3 h) was 2 g. The LIVER (3 h) was 9.9 g, the A/G (3 h) was 2.2 and the ALP (3 h) was 888.8 IU/L. It also gave an ALT (3 h) of 33.4 IU/L, an AST (3 h) of 64 IU/L and a BUN (3 h) of 12.8 mg/dL. It also gave a CRE (3 h) of 0.5 mg/dL, a Ca (3 h) of 10.8 mg/dL and a Cl (3 h) of 104.2 meq/L. It also gave a DBIL (3 h) of 0.006 mg/dL, a GLC (3 h) of 191.8 mg/dL and an IP (3 h) of 9.6 mg/dL. For the same molecule, the K (3 h) was 4.6 meq/L, the LDH (3 h) was 93.2 IU/L and the Na (3 h) was 141.4 meq/L. For the same molecule, the PL (3 h) was 146 mg/dL, the RALB (3 h) was 3.8 g/dL and the TBIL (3 h) was 0.3 mg/dL. For the same molecule, the TC (3 h) was 79.4 mg/dL, the TG (3 h) was 59.8 mg/dL and the TP (3 h) was 5.5 g/dL. For the same molecule, the gamma-GTP (3 h) was 1.4 IU/L, the TERMINAL_BW (6 h) was 210.7 g and the APTT (6 h) was 17.7 s. The Bas (6 h) was 0%, the Eos (6 h) was 0.8% and the Fbg (6 h) was 204.4 mg/dL. The Hb (6 h) was 13.8 g/dL, the Ht (6 h) was 41.4% and the Lym (6 h) was 84%. The MCH (6 h) was 21.7 pg, the MCHC (6 h) was 33.3% and the MCV (6 h) was 65.1 fL. For the same molecule, the Mono (6 h) was 5%, the Neu (6 h) was 10.6% and the PT (6 h) was 12 s. For the same molecule, the Plat (6 h) was 116.7 x10_4/uL, the RBC (6 h) was 636.4 x10_4/ul and the Ret (6 h) was 11.3%. For the same molecule, the WBC (6 h) was 115.5 x10_2/uL, the KIDNEY_L (6 h) was 1 g and the KIDNEY_R (6 h) was 1 g. The KIDNEY_TOTAL (6 h) was 1.9 g, the LIVER (6 h) was 9.5 g and the A/G (6 h) was 2.2. The ALP (6 h) was 852.8 IU/L, the ALT (6 h) was 33 IU/L and the AST (6 h) was 62 IU/L. It also gave a BUN (6 h) of 9.8 mg/dL, a CRE (6 h) of 0.5 mg/dL and a Ca (6 h) of 10.6 mg/dL. It also gave a Cl (6 h) of 104.6 meq/L, a DBIL (6 h) of 0.046 mg/dL and a GLC (6 h) of 180.2 mg/dL. The IP (6 h) was 9.3 mg/dL, the K (6 h) was 4.6 meq/L and the LDH (6 h) was 81.2 IU/L. The Na (6 h) was 141.4 meq/L, the PL (6 h) was 126.6 mg/dL and the RALB (6 h) was 3.7 g/dL. The TBIL (6 h) was 0.4 mg/dL, the TC (6 h) was 71.4 mg/dL and the TG (6 h) was 57.6 mg/dL. It also gave a TP (6 h) of 5.4 g/dL, a gamma-GTP (6 h) of 1.4 IU/L and a TERMINAL_BW (9 h) of 208.6 g. For the same molecule, the APTT (9 h) was 18 s, the Bas (9 h) was 0% and the Eos (9 h) was 1%. It also gave a Fbg (9 h) of 199 mg/dL, a Hb (9 h) of 13.6 g/dL and a Ht (9 h) of 40%. It also gave a Lym (9 h) of 77.6%, an MCH (9 h) of 22.4 pg and an MCHC (9 h) of 34%. It also gave an MCV (9 h) of 66 fL, a Mono (9 h) of 7.2% and a Neu (9 h) of 14.4%. The PT (9 h) was 12.3 s, the Plat (9 h) was 113.9 x10_4/uL and the RBC (9 h) was 606 x10_4/ul. The Ret (9 h) was 8.6%, the WBC (9 h) was 92 x10_2/uL and the KIDNEY_L (9 h) was 1 g. It also gave a KIDNEY_R (9 h) of 1 g, a KIDNEY_TOTAL (9 h) of 1.9 g and an LIVER (9 h) of 8.7 g. The A/G (9 h) was 2.3, the ALP (9 h) was 824.8 IU/L and the ALT (9 h) was 30.8 IU/L. The AST (9 h) was 62 IU/L, the BUN (9 h) was 9.8 mg/dL and the CRE (9 h) was 0.5 mg/dL. It also gave a Ca (9 h) of 10.3 mg/dL, a Cl (9 h) of 105.6 meq/L and a DBIL (9 h) of 0.062 mg/dL. For the same molecule, the GLC (9 h) was 191.8 mg/dL, the IP (9 h) was 10.9 mg/dL and the K (9 h) was 4.5 meq/L. The LDH (9 h) was 67 IU/L, the Na (9 h) was 142.4 meq/L and the PL (9 h) was 128 mg/dL. The RALB (9 h) was 3.7 g/dL, the TBIL (9 h) was 0.3 mg/dL and the TC (9 h) was 71.2 mg/dL. The TG (9 h) was 32.8 mg/dL, the TP (9 h) was 5.3 g/dL and the gamma-GTP (9 h) was 0.8 IU/L. It also gave a TERMINAL_BW (24 h) of 224.5 g, an APTT (24 h) of 16.7 s and a Bas (24 h) of 0%. It also gave an Eos (24 h) of 1.2%, a Fbg (24 h) of 203.6 mg/dL and a Hb (24 h) of 13.3 g/dL. It also gave a Ht (24 h) of 39.4%, a Lym (24 h) of 75.8% and an MCH (24 h) of 22 pg. For the same molecule, the MCHC (24 h) was 33.8%, the MCV (24 h) was 65.2 fL and the Mono (24 h) was 7.2%. The Neu (24 h) was 16.2%, the PT (24 h) was 11.8 s and the Plat (24 h) was 117.5 x10_4/uL. It also gave an RBC (24 h) of 604.6 x10_4/ul, a Ret (24 h) of 8.8% and a WBC (24 h) of 109.7 x10_2/uL. For the same molecule, the KIDNEY_L (24 h) was 1 g, the KIDNEY_R (24 h) was 1 g and the KIDNEY_TOTAL (24 h) was 2 g. The LIVER (24 h) was 10.8 g, the A/G (24 h) was 2.1 and the ALP (24 h) was 1056.6 IU/L. It also gave an ALT (24 h) of 37.8 IU/L, an AST (24 h) of 66 IU/L and a BUN (24 h) of 17.6 mg/dL. The CRE (24 h) was 0.5 mg/dL, the Ca (24 h) was 10.7 mg/dL and the Cl (24 h) was 105.6 meq/L. For the same molecule, the DBIL (24 h) was 0.008 mg/dL, the GLC (24 h) was 200.6 mg/dL and the IP (24 h) was 7.6 mg/dL. It also gave a K (24 h) of 4.8 meq/L, an LDH (24 h) of 76.2 IU/L and a Na (24 h) of 141.8 meq/L. It also gave a PL (24 h) of 149.8 mg/dL, an RALB (24 h) of 3.8 g/dL and a TBIL (24 h) of 0.3 mg/dL. It also gave a TC (24 h) of 76 mg/dL, a TG (24 h) of 109.6 mg/dL and a TP (24 h) of 5.6 g/dL. The gamma-GTP (24 h) was 1 IU/L.
